# Measurements published in patent publication US20070155720A1, “Co-administration of dopamine-receptor binding compounds” (DarPharma, Inc., priority 2003, published 2007).
# Key:
# [1] = molecular target: alpha2 adrenergic receptors; assay: Binding site screen, alpha2 adrenergic receptors
# Description: (§1) […]. […] […].
# [2] = tested on: dopamine release or reuptake; assay: Dopamine release and reuptake
# Description: as §1
# [3] = Half-life and duration of functional activity; type: in vivo
# MPTP-treated monkeys = assay: Cognitive deficits in chronic low dose MPTP-treated monkeys, delayed response task; type: in vivo, monkey
# Description: Two adult male Macaca fascicularis monkeys (4.7 and 5.7 kg initial body weight) and 1 female Macaca nemistrina monkey (5.0 kg initial body weight) were trained to perform a delayed response task. Briefly, animals were trained and tested on delayed response while seated in a restraining chair placed inside a sound attenuating modified Wisconsin General Test Apparatus. The monkey sat behind an opaque screen that when raised, allowed access to a sliding tray that contained recessed food wells with identical sliding white Plexiglas covers that served as stimulus plaques that could be displaced by the animal to obtain rewards (e.g. raisins). Monkeys were trained to retrieve a raisin from one of the food wells after observing the experimenter bait the well. […]
# Training was accomplished with a non-correction procedure, beginning with a 0 s delay and progressing to a 5 s delay. […] A response was scored a “mistake” if the monkey made its response choice to a well that was not baited with reward. […]
# Compounds and/or compositions described herein are tested by dissolving in physiological saline containing 0.2% ascorbate and administering subcutaneously. Ilustratively, compounds and/or compositions described herein are used at 0.3, 0.6, and 0.9 mg/kg doses, calculated as the free base where appropriate. The order of dose administration is determined randomly. […]
# adenylate cyclase = assay: Stimulation of adenylate cyclase in brain tissue; type: biochemical; conditions: rat, monkey, and human brain tissue
# Description: as §1
# monkeys = conditions: young, intact monkeys; cited from earlier work
# D1A receptor (C-6-mD1A) = molecular target: T1, D1A receptor (C-6-mD1A) (Macaca mulatta, UniProt O77680); assay: Binding, cloned D1A receptor in C-6 cells; design: species or system monkey (rhesus macaque); conditions: monkey receptor, read-out: Cloned Receptors D1A C-6 (monkey)
# T1 construct: expressed in transfected cells; host or cells: C-6 glioma cells
# T1 sequence (O77680 whole entry): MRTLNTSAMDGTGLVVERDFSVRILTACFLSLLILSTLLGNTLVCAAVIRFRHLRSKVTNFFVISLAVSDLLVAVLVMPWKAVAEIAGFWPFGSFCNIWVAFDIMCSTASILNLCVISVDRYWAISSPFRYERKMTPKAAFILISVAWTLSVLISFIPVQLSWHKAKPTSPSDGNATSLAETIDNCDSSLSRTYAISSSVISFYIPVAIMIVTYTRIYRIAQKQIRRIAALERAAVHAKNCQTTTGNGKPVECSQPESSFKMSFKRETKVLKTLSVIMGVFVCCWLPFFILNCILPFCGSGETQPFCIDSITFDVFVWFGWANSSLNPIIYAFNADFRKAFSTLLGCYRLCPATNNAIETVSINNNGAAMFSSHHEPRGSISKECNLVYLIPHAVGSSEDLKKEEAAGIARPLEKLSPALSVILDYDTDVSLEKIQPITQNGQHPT
# Protocol: Cells were grown in DMEM-H medium containing 4,500 mg/l glucose, L-glutamine, 5% fetal bovine serum and 600 ng/ml G418. […] Cells were plated into 24-well plates and allowed to grow to confluence (usually 2-4 days), after which they were used for either dose-response or desensitization studies. For the binding studies, 75-cm^2 flasks of confluent cells were treated as described below. All studies (functional and receptor binding) used cells from passages 2 to 20.
# Flasks of cells in the same passage were rinsed with 5 ml hypoosmotic buffer (1 mM HEPES, 2 mM EGTA, pH 7.4), and then incubated with 7 ml hypoosmotic buffer for 5 to 10 min at 4° C. Cells were then scraped off the bottom of the flask with a rubber policeman, collected into 50-ml tubes and centrifuged at 28,000×g at 4° C. for 20 min. […] Aliquots contained approximately 1 mg/ml of protein, as measured with the BCA protein assay reagent (Pierce, Rockford, Ill.). […]
# For dose-response studies, data were calculated for each sample and expressed initially as pmol cAMP per mg protein per min. […] Normalized dose-response curves were analyzed by nonlinear regression with an algorithm for sigmoid curves in the curve-fitting program Prism (Graphpad Inc., San Diego, Calif.). […] For competition binding studies, the raw data (expressed in dpm) were analyzed by nonlinear regression with a sigmoid dose-response model in Prism. […]
# [4] = tested on: acetylcholine release in striatum and frontal cortex; assay: Acetylcholine release by in vivo microdialysis in conscious, freely-moving rats; design: species or system rat
# [5] = Pharmacokinetic studies in rodents and non-human primates; type: in vivo
# Description: […]. […] […]
# D4 receptor = molecular target: T2, D4 receptor (Rattus norvegicus, UniProt P30729); assay: Binding, cloned D4 receptor in CHO cells; design: expressed in transfected cells; host or cells: CHO cells; conditions: read-out: Cloned Receptors D4 CHO (rat)
# T2 sequence (P30729 1-387): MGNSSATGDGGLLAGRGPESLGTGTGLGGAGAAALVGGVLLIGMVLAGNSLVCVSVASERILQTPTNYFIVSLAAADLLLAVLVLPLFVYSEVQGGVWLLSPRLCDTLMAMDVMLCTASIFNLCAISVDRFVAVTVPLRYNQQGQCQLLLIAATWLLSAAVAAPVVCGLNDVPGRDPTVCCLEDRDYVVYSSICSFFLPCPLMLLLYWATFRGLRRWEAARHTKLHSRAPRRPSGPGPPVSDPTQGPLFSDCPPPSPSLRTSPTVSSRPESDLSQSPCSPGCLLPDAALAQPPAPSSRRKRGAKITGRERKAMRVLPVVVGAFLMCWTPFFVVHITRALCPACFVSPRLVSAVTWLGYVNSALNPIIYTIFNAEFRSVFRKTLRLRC
# D3 receptor = D3 receptor (Rattus norvegicus, UniProt P19020); assay: biochemical
# Chain of D3 receptor (P19020 whole entry): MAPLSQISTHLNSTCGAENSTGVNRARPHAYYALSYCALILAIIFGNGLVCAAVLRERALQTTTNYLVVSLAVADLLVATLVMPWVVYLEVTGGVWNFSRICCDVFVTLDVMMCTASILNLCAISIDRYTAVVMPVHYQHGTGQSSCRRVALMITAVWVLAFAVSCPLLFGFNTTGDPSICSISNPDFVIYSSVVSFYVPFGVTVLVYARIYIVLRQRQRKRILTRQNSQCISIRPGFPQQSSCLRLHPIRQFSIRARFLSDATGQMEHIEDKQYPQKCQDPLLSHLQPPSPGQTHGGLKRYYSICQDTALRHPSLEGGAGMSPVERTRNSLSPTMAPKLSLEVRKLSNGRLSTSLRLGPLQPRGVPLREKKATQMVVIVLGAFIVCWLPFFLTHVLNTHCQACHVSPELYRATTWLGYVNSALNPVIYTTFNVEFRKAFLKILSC
# [6] = tested on: rats with scopolamine-induced deficits; assay: Passive avoidance in rats, scopolamine-induced amnesia; type: in vivo, rat
# Protocol: The protocol summarized below is one of many variants of the passive avoidance procedure using scopolamine-induced amnesia (for review see Rush, Behav Neural Biol 50:255-274, 1988). This procedure is commonly used to identify drugs that may be useful in treating cognitive deficits, particularly those observed in AD. The effects of the D
# Testing was conducted in standard 2-compartment rectangular passive avoidance chambers (San Diego Instruments, San Diego, Calif.) with black plexiglas sides and grid floors. The light compartment of the chambers were illuminated by a 20 W lamp located in this compartment; the dark side of the chambers will be shielded from light, except for light penetrating the opening connecting the two compartments of each chamber.
# On training day, groups of 8 rats were injected with scopolamine (3.0 mg/kg, ip) or vehicle (1.0 ml/kg) 30 min prior to training. Scopolamine served as the dementing agent in this experiment. Ten min prior to training, each group of rats received a second injection of vehicle or a dose of DHX. At the end of the pretreatment interval, each rat was placed individually in the light compartment facing away from the opening between compartments. The latency for each rat to travel from the light to the dark compartment was measured up to a maximum of 300 sec; any animal not entering the dark compartment within 300 sec was discarded from the test group. Once the animal entered the dark compartment completely, a 1.0 milliampere, 3.0 sec scrambled shock was delivered to the entire grid floor. The animal was allowed to remain in the dark compartment during this 3.0 sec period or to escape to the light compartment. Each rat was then returned immediately to its home cage.
# Twenty-four hr after training, each rat was tested in the same apparatus for retention of the task (to remain passively in the light compartment). […] The latency for animals to enter the dark compartment on test day (step-through latency) was recorded up to a maximum of 600 sec. Each animal was used only once in a single experiment.
# A one-way analysis of variance (ANOVA) and Newman-Keuls post-hoc comparisons were used to identify significant deficits in passive avoidance responding produced by scopolamine and their reversal by DHX; a p value of less than 0.05 was used as the level of significance.
# [7] = molecular target: 40 binding sites (other than the D1 site); assay: Screen for activity at 40 binding sites; conditions: 40 binding sites other than D1, all except D2 and alpha2 adrenergic; read-out: IC50 at binding sites found inactive
# Description: as §1
structure (smiles),measurement,setting,value
"Cl.Oc1cc2c(cc1O)[C@@H]1c3ccccc3CN[C@H]1CC2 (relative stereo) [Compound 6a, Trans-10,11-dihydroxy-5,6,6a,7,8,12b-hexahydrobenzo[a]phenanthridine hydrochloride]",IC50,[1],~230 nM
same,Releasing dopamine or blocking its reuptake,[2],inactive
same,Functional half-life,[3]; given subcutaneously,about 3 hr
same,half-life,"[3]; in vivo, iv, given intravenously, read-out: Half-life",~30 min
same,Cognitive deficits produced by chronic low dose MPTP treatment,MPTP-treated monkeys,improve cognitive deficits
same,Efficacy in stimulating adenylate cyclase in brain tissue,adenylate cyclase,full efficacy
same,Spatial working memory,monkeys,produced improvements
same,Ki,D1A receptor (C-6-mD1A),2.2 nM
same,Acetylcholine release,[4],dose-related increases
same,Clearance from plasma,[5]; in vivo,cleared rapidly
same,Blood levels,"[5]; rodents and non-human primates, following iv, sc and po administration",significant blood levels
same,Ki,D4 receptor,13 nM
same,Ki,D3 receptor,18 nM
same,Shape of dose-response curve in passive avoidance,[6],inverted U-shaped dose-response curve
same,Scopolamine-induced deficits in step-through latency,"[6]; dose of 0.3 mg/kg, scopolamine 3.0 mg/kg ip",significantly improved
same,Increase in step-through latency,"[6]; doses of 0.1 and 1.0 mg/kg, scopolamine 3.0 mg/kg ip",not statistically-significant
same,Deficits induced by scopolamine,"[6]; narrow range of doses (0.1, 0.3, and 1.0 mg/kg ip)",significantly improved
same,IC50,[7],> 10000 nM
